# Results as given in PMC4823954, “From fighting depression to conquering tumors: a novel tricyclic thiazepine compound as a tubulin polymerization inhibitor” (Cell Death & Disease, 2016).
# Legend:
# Assay in all cases: KINOMEscan
# Format in all cases: binding
# Details in all cases: read-out: % Ctrl
# [1] = target: T1, ADCK3 (Homo sapiens, UniProt Q8NI60)
# T1 construct: purchased DiscoveRx KINOMEscan
# In short: (§1)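 Competition binding panel of 442 non-mutant kinases: test compound at 5 and 10 μM competed with an active-site-directed ligand for 1 h with shaking. Bound kinase was eluted with 0.5 μM ligand and quantified by qPCR; %Ctrl = (compound − positive control)/(DMSO − positive control) × 100, lower meaning tighter binding.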
# [2] = target: T2, MLK1 (Homo sapiens, UniProt P80192)
# T2 construct: purchased DiscoveRx KINOMEscan
# In short: as §1
# [3] = target: T3, PRKR (Homo sapiens, UniProt P19525)
# T3 construct: purchased DiscoveRx KINOMEscan
# T3 sequence (P19525 whole entry): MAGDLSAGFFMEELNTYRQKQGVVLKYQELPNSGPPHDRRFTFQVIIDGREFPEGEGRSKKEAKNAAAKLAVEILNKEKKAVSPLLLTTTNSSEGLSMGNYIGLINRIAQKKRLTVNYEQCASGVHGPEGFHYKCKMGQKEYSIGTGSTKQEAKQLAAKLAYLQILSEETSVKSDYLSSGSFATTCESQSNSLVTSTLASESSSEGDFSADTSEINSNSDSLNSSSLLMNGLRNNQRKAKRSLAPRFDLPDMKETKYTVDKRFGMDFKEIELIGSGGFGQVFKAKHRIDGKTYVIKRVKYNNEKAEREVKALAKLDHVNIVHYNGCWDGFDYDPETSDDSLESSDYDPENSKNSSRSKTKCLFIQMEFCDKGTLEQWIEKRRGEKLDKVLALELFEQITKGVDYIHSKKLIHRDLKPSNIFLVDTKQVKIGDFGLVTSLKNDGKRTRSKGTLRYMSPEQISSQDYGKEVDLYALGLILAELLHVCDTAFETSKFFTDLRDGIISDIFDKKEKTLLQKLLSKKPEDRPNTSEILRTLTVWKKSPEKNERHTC
# In short: as §1
# [4] = target: T4, CDK2 (Homo sapiens, UniProt P24941)
# T4 construct: purchased DiscoveRx KINOMEscan
# In short: as §1
# [5] = target: T5, ITK (Homo sapiens, UniProt Q08881)
# T5 construct: purchased DiscoveRx KINOMEscan
# T5 sequence (Q08881 whole entry): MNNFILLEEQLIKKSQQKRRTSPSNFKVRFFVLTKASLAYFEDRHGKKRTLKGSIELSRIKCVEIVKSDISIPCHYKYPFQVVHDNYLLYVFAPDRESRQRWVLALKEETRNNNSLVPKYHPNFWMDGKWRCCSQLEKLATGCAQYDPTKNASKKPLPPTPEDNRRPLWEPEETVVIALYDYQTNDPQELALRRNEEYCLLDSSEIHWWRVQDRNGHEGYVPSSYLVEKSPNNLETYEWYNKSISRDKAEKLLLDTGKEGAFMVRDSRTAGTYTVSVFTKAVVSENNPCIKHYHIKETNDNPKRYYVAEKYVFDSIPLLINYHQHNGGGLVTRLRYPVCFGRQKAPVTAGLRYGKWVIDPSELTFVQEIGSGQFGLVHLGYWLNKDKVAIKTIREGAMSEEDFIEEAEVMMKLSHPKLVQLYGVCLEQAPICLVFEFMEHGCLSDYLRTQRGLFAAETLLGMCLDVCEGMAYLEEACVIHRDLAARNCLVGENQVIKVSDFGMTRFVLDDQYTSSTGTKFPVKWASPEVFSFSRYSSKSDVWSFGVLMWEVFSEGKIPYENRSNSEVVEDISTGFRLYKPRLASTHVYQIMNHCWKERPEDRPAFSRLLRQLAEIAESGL
# In short: as §1
# [6] = target: T6, ACVR2A (Homo sapiens, UniProt P27037)
# T6 construct: purchased DiscoveRx KINOMEscan
# In short: as §1
# [7] = target: T7, ERBB3 (Homo sapiens, UniProt P21860)
# T7 construct: purchased DiscoveRx KINOMEscan
# T7 sequence (P21860 20-1342): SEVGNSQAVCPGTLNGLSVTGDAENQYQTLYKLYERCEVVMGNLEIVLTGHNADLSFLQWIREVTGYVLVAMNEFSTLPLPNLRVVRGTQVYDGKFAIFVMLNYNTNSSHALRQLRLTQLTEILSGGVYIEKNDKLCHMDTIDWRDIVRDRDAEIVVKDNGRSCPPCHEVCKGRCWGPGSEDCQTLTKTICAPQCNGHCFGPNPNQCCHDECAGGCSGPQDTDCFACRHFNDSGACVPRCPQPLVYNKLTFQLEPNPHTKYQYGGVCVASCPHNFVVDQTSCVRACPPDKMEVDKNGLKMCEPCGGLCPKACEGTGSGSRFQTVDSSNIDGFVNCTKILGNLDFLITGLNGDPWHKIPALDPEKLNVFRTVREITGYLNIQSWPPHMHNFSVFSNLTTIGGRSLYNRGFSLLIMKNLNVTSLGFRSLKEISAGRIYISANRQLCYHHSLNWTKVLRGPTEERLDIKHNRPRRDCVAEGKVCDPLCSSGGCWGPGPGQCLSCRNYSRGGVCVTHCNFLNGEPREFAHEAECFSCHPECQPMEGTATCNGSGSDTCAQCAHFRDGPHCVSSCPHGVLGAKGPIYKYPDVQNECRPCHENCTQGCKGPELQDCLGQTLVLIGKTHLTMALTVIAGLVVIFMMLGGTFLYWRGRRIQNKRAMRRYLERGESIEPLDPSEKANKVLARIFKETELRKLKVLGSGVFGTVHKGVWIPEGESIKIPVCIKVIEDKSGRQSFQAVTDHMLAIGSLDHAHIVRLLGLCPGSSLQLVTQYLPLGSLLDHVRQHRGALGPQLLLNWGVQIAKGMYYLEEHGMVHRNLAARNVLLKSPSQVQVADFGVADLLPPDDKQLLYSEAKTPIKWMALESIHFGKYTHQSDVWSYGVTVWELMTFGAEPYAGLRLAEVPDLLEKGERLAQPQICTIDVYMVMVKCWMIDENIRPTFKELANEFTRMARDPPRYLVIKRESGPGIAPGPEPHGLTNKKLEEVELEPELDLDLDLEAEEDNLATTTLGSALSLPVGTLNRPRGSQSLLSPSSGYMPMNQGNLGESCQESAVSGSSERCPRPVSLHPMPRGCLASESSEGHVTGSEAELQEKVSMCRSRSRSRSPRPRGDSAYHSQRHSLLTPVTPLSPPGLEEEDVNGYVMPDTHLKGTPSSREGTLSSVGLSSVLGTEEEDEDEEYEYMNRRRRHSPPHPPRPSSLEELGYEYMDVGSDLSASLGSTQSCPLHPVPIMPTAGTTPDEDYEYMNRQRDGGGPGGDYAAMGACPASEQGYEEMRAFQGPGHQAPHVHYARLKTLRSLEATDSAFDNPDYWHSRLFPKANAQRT
# In short: as §1
# [8] = target: T8, SRMS (Homo sapiens, UniProt Q9H3Y6)
# T8 construct: purchased DiscoveRx KINOMEscan
# In short: as §1
# [9] = target: T9, CAMK2G (Homo sapiens, UniProt Q13555)
# T9 construct: purchased DiscoveRx KINOMEscan
# In short: as §1
# [10] = target: T10, CSNK1A1L (Homo sapiens, UniProt Q8N752)
# T10 construct: purchased DiscoveRx KINOMEscan
# In short: as §1
# [11] = target: T11, MEK6 (Homo sapiens, UniProt P52564)
# T11 construct: purchased DiscoveRx KINOMEscan
# In short: as §1
# [12] = target: T12, MAP3K4 (Homo sapiens, UniProt Q9Y6R4)
# T12 construct: purchased DiscoveRx KINOMEscan
# In short: as §1
# [13] = target: T13, CHEK1 (Homo sapiens, UniProt O14757)
# T13 construct: purchased DiscoveRx KINOMEscan
# T13 sequence (O14757 whole entry): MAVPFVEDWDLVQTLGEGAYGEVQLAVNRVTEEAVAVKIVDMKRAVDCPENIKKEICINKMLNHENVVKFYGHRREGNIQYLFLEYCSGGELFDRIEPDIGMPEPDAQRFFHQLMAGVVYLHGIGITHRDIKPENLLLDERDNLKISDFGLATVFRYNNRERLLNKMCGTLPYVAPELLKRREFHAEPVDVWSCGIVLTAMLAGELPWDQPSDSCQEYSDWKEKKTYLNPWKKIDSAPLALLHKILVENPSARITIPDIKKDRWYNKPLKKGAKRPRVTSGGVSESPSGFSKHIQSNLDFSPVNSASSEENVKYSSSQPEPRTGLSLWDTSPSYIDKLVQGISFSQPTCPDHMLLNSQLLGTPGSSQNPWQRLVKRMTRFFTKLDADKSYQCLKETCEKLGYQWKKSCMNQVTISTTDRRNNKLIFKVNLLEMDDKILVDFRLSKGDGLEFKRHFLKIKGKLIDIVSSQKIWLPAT
# In short: as §1
# [14] = target: T14, MAP4K4 (Homo sapiens, UniProt O95819)
# T14 construct: purchased DiscoveRx KINOMEscan
# T14 sequence (O95819 whole entry): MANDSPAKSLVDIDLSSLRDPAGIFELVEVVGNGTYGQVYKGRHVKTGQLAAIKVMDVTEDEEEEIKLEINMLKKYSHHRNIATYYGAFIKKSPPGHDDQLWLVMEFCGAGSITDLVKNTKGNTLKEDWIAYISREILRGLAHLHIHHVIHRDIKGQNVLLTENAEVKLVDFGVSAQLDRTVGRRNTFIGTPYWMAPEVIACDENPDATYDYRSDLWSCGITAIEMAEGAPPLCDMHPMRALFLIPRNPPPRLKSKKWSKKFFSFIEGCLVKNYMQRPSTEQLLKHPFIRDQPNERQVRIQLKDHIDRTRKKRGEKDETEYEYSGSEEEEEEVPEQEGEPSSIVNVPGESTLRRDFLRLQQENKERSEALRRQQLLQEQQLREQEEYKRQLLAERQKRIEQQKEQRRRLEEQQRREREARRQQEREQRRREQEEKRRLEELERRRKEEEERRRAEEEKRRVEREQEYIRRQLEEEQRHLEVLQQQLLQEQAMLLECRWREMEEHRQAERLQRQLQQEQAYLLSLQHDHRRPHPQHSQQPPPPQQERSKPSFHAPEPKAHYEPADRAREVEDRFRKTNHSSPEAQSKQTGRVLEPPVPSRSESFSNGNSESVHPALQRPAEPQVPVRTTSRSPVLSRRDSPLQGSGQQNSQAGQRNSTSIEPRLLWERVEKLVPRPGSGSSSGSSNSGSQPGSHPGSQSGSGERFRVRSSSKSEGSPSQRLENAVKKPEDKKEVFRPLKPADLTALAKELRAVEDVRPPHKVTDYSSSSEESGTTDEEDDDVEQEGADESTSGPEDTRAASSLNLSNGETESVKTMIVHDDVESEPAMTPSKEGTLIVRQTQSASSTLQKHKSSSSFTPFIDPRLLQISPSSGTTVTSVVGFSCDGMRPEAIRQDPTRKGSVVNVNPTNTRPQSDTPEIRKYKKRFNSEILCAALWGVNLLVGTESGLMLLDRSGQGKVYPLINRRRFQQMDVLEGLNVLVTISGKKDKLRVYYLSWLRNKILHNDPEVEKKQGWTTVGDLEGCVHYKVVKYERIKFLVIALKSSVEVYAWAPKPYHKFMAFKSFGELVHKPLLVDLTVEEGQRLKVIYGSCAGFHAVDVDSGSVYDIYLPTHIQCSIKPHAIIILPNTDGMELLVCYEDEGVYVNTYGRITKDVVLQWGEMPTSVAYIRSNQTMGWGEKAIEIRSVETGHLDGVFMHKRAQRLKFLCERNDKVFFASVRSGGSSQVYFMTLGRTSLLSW
# In short: as §1
# [15] = target: T15, CDK11 (Homo sapiens, UniProt Q9BWU1)
# T15 construct: purchased DiscoveRx KINOMEscan
# In short: as §1
# [16] = target: T16, MAST1 (Homo sapiens, UniProt Q9Y2H9)
# T16 construct: purchased DiscoveRx KINOMEscan
# In short: as §1
# [17] = target: T17, MST1 (Homo sapiens, UniProt Q13043)
# T17 construct: purchased DiscoveRx KINOMEscan
# In short: as §1
# [18] = target: T18, BRAF (Homo sapiens, UniProt P15056)
# T18 construct: purchased DiscoveRx KINOMEscan
# In short: as §1
# [19] = target: T19, BMPR2 (Homo sapiens, UniProt Q13873)
# T19 construct: purchased DiscoveRx KINOMEscan
# In short: as §1
# [20] = target: T20, IKK-beta (Homo sapiens, UniProt O14920)
# T20 construct: purchased DiscoveRx KINOMEscan
# In short: as §1
# [21] = target: T21, RPS6KA4(Kin.Dom.1-N-terminal) (Homo sapiens, UniProt O75676)
# T21 construct: RPS6KA4(Kin.Dom.1-N-terminal); purchased DiscoveRx KINOMEscan
# T21 sequence (O75676 1-371 limits assumed): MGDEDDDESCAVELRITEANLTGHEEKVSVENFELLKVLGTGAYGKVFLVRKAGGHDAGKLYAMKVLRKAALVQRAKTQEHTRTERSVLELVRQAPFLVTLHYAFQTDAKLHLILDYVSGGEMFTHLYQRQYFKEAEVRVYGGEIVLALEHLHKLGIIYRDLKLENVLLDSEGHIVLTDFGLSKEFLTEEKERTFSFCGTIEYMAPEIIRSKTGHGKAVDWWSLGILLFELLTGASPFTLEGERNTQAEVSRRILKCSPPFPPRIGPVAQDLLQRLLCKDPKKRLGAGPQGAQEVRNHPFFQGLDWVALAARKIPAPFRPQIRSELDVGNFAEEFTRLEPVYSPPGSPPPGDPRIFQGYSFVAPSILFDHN
# In short: as §1
# [22] = target: T22, PIM2 (Homo sapiens, UniProt Q9P1W9)
# T22 construct: purchased DiscoveRx KINOMEscan
# In short: as §1
# [23] = target: T23, YSK4 (Homo sapiens, UniProt Q56UN5)
# T23 construct: purchased DiscoveRx KINOMEscan
# In short: as §1
# [24] = target: T24, DRAK2 (Homo sapiens, UniProt O94768)
# T24 construct: purchased DiscoveRx KINOMEscan
# In short: as §1
# [25] = target: T25, EIF2AK1 (Homo sapiens, UniProt Q9BQI3)
# T25 construct: purchased DiscoveRx KINOMEscan
# In short: as §1
# [26] = target: T26, CLK4 (Homo sapiens, UniProt Q9HAZ1)
# T26 construct: purchased DiscoveRx KINOMEscan
# In short: as §1
# [27] = target: T27, TSSK1B (Homo sapiens, UniProt Q9BXA7)
# T27 construct: purchased DiscoveRx KINOMEscan
# In short: as §1
# [28] = target: T28, CLK2 (Homo sapiens, UniProt P49760)
# T28 construct: purchased DiscoveRx KINOMEscan
# In short: as §1
# [29] = target: T29, EPHB4 (Homo sapiens, UniProt P54760)
# T29 construct: purchased DiscoveRx KINOMEscan
# In short: as §1
# [30] = target: T30, MET (Homo sapiens, UniProt P08581)
# T30 construct: purchased DiscoveRx KINOMEscan
# In short: as §1
# T1 sequence (Q8NI60 163-647): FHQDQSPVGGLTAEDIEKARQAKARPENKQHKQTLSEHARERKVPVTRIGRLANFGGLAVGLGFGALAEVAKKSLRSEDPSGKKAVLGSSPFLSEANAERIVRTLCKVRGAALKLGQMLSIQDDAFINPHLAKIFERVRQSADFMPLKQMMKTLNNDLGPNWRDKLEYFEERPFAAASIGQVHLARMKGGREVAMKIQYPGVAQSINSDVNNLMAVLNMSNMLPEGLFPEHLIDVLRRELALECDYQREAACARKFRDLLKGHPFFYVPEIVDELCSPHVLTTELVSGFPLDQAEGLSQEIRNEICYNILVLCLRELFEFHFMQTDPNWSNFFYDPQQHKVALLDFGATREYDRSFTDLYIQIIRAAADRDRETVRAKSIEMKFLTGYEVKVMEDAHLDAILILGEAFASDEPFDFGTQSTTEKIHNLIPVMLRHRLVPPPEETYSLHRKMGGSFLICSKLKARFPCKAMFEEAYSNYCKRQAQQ
smiles,measurement,setting,value
"Cc1ccc(C2=Nc3cccnc3S(=O)(=O)c3ccccc32)cc1 [TBPT, 6-(p-tolyl)benzo[f] pyrido[2,3-b][1,4] thiazepine 11,11-dioxide]",remaining binding at 5 µM,[1]; 5 μM,98%
same,remaining binding at 10 µM,[1]; 10 μM,100%
same,remaining binding at 5 µM,[2]; 5 μM,100%
same,remaining binding at 10 µM,[2]; 10 μM,100%
same,remaining binding at 5 µM,[3]; 5 μM,97%
same,remaining binding at 10 µM,[3]; 10 μM,90%
same,remaining binding at 5 µM,[4]; 5 μM,98%
same,remaining binding at 10 µM,[4]; 10 μM,93%
same,remaining binding at 5 µM,[5]; 5 μM,100%
same,remaining binding at 10 µM,[5]; 10 μM,90%
same,remaining binding at 5 µM,[6]; 5 μM,100%
same,remaining binding at 10 µM,[6]; 10 μM,93%
same,remaining binding at 5 µM,[7]; 5 μM,45%
same,remaining binding at 10 µM,[7]; 10 μM,100%
same,remaining binding at 5 µM,[8]; 5 μM,87%
same,remaining binding at 10 µM,[8]; 10 μM,97%
same,remaining binding at 5 µM,[9]; 5 μM,100%
same,remaining binding at 10 µM,[9]; 10 μM,96%
same,remaining binding at 5 µM,[10]; 5 μM,100%
same,remaining binding at 10 µM,[10]; 10 μM,91%
same,remaining binding at 5 µM,[11]; 5 μM,83%
same,remaining binding at 10 µM,[11]; 10 μM,100%
same,remaining binding at 5 µM,[12]; 5 μM,99%
same,remaining binding at 10 µM,[12]; 10 μM,96%
same,remaining binding at 5 µM,[13]; 5 μM,100%
same,remaining binding at 10 µM,[13]; 10 μM,100%
same,remaining binding at 5 µM,[14]; 5 μM,94%
same,remaining binding at 10 µM,[14]; 10 μM,63%
same,remaining binding at 5 µM,[15]; 5 μM,100%
same,remaining binding at 10 µM,[15]; 10 μM,100%
same,remaining binding at 5 µM,[16]; 5 μM,45%
same,remaining binding at 10 µM,[16]; 10 μM,87%
same,remaining binding at 5 µM,[17]; 5 μM,93%
same,remaining binding at 10 µM,[17]; 10 μM,100%
same,remaining binding at 5 µM,[18]; 5 μM,100%
same,remaining binding at 10 µM,[18]; 10 μM,100%
same,remaining binding at 5 µM,[19]; 5 μM,85%
same,remaining binding at 10 µM,[19]; 10 μM,100%
same,remaining binding at 5 µM,[20]; 5 μM,84%
same,remaining binding at 10 µM,[20]; 10 μM,98%
same,remaining binding at 5 µM,[21]; 5 μM,75%
same,remaining binding at 10 µM,[21]; 10 μM,100%
same,remaining binding at 5 µM,[22]; 5 μM,100%
same,remaining binding at 10 µM,[22]; 10 μM,100%
same,remaining binding at 5 µM,[23]; 5 μM,98%
same,remaining binding at 10 µM,[23]; 10 μM,98%
same,remaining binding at 5 µM,[24]; 5 μM,100%
same,remaining binding at 10 µM,[24]; 10 μM,91%
same,remaining binding at 5 µM,[25]; 5 μM,100%
same,remaining binding at 10 µM,[25]; 10 μM,100%
same,remaining binding at 5 µM,[26]; 5 μM,93%
same,remaining binding at 10 µM,[26]; 10 μM,96%
same,remaining binding at 5 µM,[27]; 5 μM,90%
same,remaining binding at 10 µM,[27]; 10 μM,100%
same,remaining binding at 5 µM,[28]; 5 μM,100%
same,remaining binding at 10 µM,[28]; 10 μM,100%
same,remaining binding at 5 µM,[29]; 5 μM,100%
same,remaining binding at 10 µM,[29]; 10 μM,98%
same,remaining binding at 5 µM,[30]; 5 μM,100%
same,remaining binding at 10 µM,[30]; 10 μM,92%
